Measured values as given in US5629288A, “Lipopeptide derivatives, a process for their preparation and their use” (Hoechst Aktiengesellschaft, priority 1994, dated 1997).

Tested on: venous blood from rhesus monkeys
Assay: Hemolytic activity in vitro (standard hemolysis test)
Type: cell-based
Conditions: for Hemolysis (%): fresh heparinized rhesus monkey blood, 37° C., 3 hours, absorption at 540 nm, % of maximum inducible hemolysis (distilled water = 100%), dilutions 1600-3.125 mg/l, concentration behind the value not stated; for hemolysis in the standard hemolysis test (in words): rhesus monkey blood
Procedure: 2) Freshly removed venous blood from rhesus monkeys is used to measure the hemolytic activity. The blood is collected in heparinized tubes and 200 μl aliquots are distributed over 12 polyethylene tubes. 200 μl of distilled water are added to one aliquot, which serves as 100% standard, and another is mixed with 200 μl of physiological saline (0.9% NaCl) (0% standard). 200 μl portions of substance dilutions in physiological saline containing 1600, 800, 400, 200, 100, 50, 25, 12.5, 6.25 and 3.125 mg/l are distributed over the other tubes. All the tubes are cautiously swirled and incubated at 37° C. for 3 hours. Subsequently 100% standard is made up with 5 ml of distilled water, and the others are each made up with 5 ml of physiological saline and centrifuged at 700 g for 5 minutes.
The hemolysis is determined by measuring the absorption of the supernatant in a spectrophotometer at a wavelength of 540 nm. The absorption of the standard with complete hemolysis (distilled water) is set equal to 100%. The absorptions of the test product dilutions and of the 0% standard are measured and reported as a percentage of the maximum inducible hemolysis.

CCCCCCCCCCCC(=O)NC(CC(=O)O)C(=O)NC1C(=O)N2CCCCC2C(=O)NC(C(C)C(=O)O)C(=O)NC(CC(=O)O)C(=O)NCC(=O)NC(CC(=O)O)C(=O)NCC(=O)NC(C(C)N)C(=O)NC(C(C)C)C(=O)N2CCCC2C(=O)NC1C (centres unmarked) [Example 7]
Hemolysis (%): 25.7%

CC(C)C1NC(=O)C(C(C)N)NC(=O)CNC(=O)C(CC(=O)O)NC(=O)CNC(=O)C(CC(=O)O)NC(=O)C(C(C)C(=O)O)NC(=O)C2CCCCN2C(=O)C(NC(=O)C(CC(=O)O)NC(=O)c2ccc(CCc3ccc(-c4ccccc4)cc3)cc2)C(C)NC(=O)C2CCCN2C1=O (centres unmarked) [Example 55]
Hemolysis (%): 0.5%
hemolysis in the standard hemolysis test (in words): virtually no evidence of hemolysis

CCCCCCCCCCCCCC(=O)NC(CC(=O)O)C(=O)NC1C(=O)N2CCCCC2C(=O)NC(C(C)C(=O)O)C(=O)NC(CC(=O)O)C(=O)NCC(=O)NC(CC(=O)O)C(=O)NCC(=O)NC(C(C)N)C(=O)NC(C(C)C)C(=O)N2CCCC2C(=O)NC1C (centres unmarked) [Example 8]
Hemolysis (%): 19.3%

CCCCCCCCCCCCC(=O)NC(CC(=O)O)C(=O)NC1C(=O)N2CCCCC2C(=O)NC(C(C)C(=O)O)C(=O)NC(CC(=O)O)C(=O)NCC(=O)NC(CC(=O)O)C(=O)NCC(=O)NC(C(C)N)C(=O)NC(C(C)C)C(=O)N2CCCC2C(=O)NC1C (centres unmarked) [Example 1, Tridecanoyl Derivative of A 1437 Cyclic Peptide]
Hemolysis (%): 19.6%

CCCCCCCc1ccc(C(=O)NC(CC(=O)O)C(=O)NC2C(=O)N3CCCCC3C(=O)NC(C(C)C(=O)O)C(=O)NC(CC(=O)O)C(=O)NCC(=O)NC(CC(=O)O)C(=O)NCC(=O)NC(C(C)N)C(=O)NC(C(C)C)C(=O)N3CCCC3C(=O)NC2C)cc1 (centres unmarked) [Example 49]
Hemolysis (%): 0.0%

CC(C)CCCCCCCCCCC(=O)NC(CC(=O)O)C(=O)NC1C(=O)N2CCCCC2C(=O)NC(C(C)C(=O)O)C(=O)NC(CC(=O)O)C(=O)NCC(=O)NC(CC(=O)O)C(=O)NCC(=O)NC(C(C)N)C(=O)NC(C(C)C)C(=O)N2CCCC2C(=O)NC1C (centres unmarked) [Example 14]
Hemolysis (%): 22.9%

CCCCCCCCCCCCCCC(=O)NC(CC(=O)O)C(=O)NC1C(=O)N2CCCCC2C(=O)NC(C(C)C(=O)O)C(=O)NC(CC(=O)O)C(=O)NCC(=O)NC(CC(=O)O)C(=O)NCC(=O)NC(C(C)N)C(=O)NC(C(C)C)C(=O)N2CCCC2C(=O)NC1C (centres unmarked) [Example 9]
Hemolysis (%): 22.8%

CCCCCCCCCCC(=O)NC(CC(=O)O)C(=O)NC1C(=O)N2CCCCC2C(=O)NC(C(C)C(=O)O)C(=O)NC(CC(=O)O)C(=O)NCC(=O)NC(CC(=O)O)C(=O)NCC(=O)NC(C(C)N)C(=O)NC(C(C)C)C(=O)N2CCCC2C(=O)NC1C (centres unmarked) [Example 6]
Hemolysis (%): 16.5%

CC(C)C1NC(=O)C(C(C)N)NC(=O)CNC(=O)C(CC(=O)O)NC(=O)CNC(=O)C(CC(=O)O)NC(=O)C(C(C)C(=O)O)NC(=O)C2CCCCN2C(=O)C(NC(=O)C(CC(=O)O)NC(=O)c2ccc(CCc3ccc(CCc4ccccc4)cc3)cc2)C(C)NC(=O)C2CCCN2C1=O (centres unmarked) [Example 56]
Hemolysis (%): 0.4%
hemolysis in the standard hemolysis test (in words): virtually no evidence of hemolysis
